This is an account of results in patent US12264145B2, “Crystal form F of trelagliptin and preparation method thereof” (GUANGDONG UNIVERSITY OF TECHNOLOGY, priority 2023, dated 2025).

Type in all cases: physicochemical
A short description of data set [1]: Equilibrium solubility of trelagliptin crystal forms in different dissolution media (UV-vis at 279 nm). The note with it: for solubility at 24 h: 37 °C, thermodynamic from solid; for solubility at 24 h / Solubility: 24 h.
Data set [2] can be described thus: High-humidity stability test (XRPD). The note with it: relative humidities of 90% and 75% at 25° C. for 10 d, XRPD on day 5 and day 10. As to the method: (§1) According to the Guidelines for Stability Tests of Active Pharmaceutical Ingredients (APIs) and Formulations, the stability of the novel crystal form F of trelagliptin was tested.
High-humidity test: The novel crystal form F of trelagliptin was spread in petri dishes, and then the petri dishes were placed in constant-temperature and constant-humidity incubators respectively with relative humidities of 90% and 75% at 25° C. for 10 d, where on day 5 and day 10, a sample was taken and subjected to XRPD analysis to determine whether the crystal form was stable.

The nature of data set [3]: Strong light irradiation stability test (XRPD). To be noted: illuminance 4500 lx±500 lx for 10 d, XRPD on day 5 and day 10. As to the method:
as §1
Strong light irradiation test: The novel crystal form F of trelagliptin was spread in a petri dish and then placed in a strong light irradiation test chamber with illuminance of 4500 lx±500 lx for 10 d, where on day 5 and day 10, a sample was taken and subjected to XRPD analysis to determine whether the crystal form was stable.

Data set [4] is described as follows: High-temperature stability test (XRPD). The note with it: 60° C. for 10 d, XRPD on day 5 and day 10. The procedure:
as §1
High-temperature test: The novel crystal form F of trelagliptin was spread in a petri dish and then placed in a drying oven at 60° C. for 10 d, where on day 5 and day 10, a sample was taken and subjected to XRPD analysis to determine whether the crystal form was stable.

The nature of the next data set: Moisture absorption. To be noted: 80% RH, 25° C., 24 h. The procedure: The dried novel crystal form F of trelagliptin prepared in this example was spread in a weighing bottle, then placed in a constant-temperature and constant-humidity incubator with a humidity of 80% RH and a temperature of 25° C. for 24 h, and then weighed.

A word on the solubility: it is how much of the substance goes into solution per volume. The term Solubility denotes the dissolved amount per volume that the medium holds.

Values after ≈ are worked out from the molar mass of the structure shown.

Consider `Cn1c(=O)cc(N2CCC[C@@H](N)C2)n(Cc2cc(F)ccc2C#N)c1=O` [Crystal form I, trelagliptin], for which the solubility at 24 h in data set [1] (buffer solution, pH 1.2, simulated gastric fluid, buffer solution pH = 1.2, 37° C.) is 42.7 mg/mL (≈ 119 mM).

Turning to `Cn1c(=O)cc(N2CCC[C@@H](N)C2)n(Cc2cc(F)ccc2C#N)c1=O` [Crystal form F, trelagliptin], the Solubility in data set [1] (buffer solution pH = 1.2, 37° C.) amounted to 73.61 mg/mL (≈ 206 mM); in data set [1] (buffer solution pH = 7.4, 37° C.) it was 30.54 mg/mL (≈ 85.5 mM); in data set [1] (sodium phosphate buffer solution pH = 6.8, 37° C.), 32.78 mg/mL (≈ 91.7 mM). This molecule also registered a solubility at 24 h in data set [1] (deionized water, water) of 8.51 mg/mL (≈ 23.8 mM). In addition, in data set [1] (deionized water, pH 6.8, pH 7.4 and pH 1.2 buffer solutions), the “Solubilities compared with the original crystal form I” value is “significantly-higher solubilities”. The “Stability of the crystal form” value in data set [2], in data set [3] and in data set [4] was “no impact on the stability” throughout. In addition, in the data set “Moisture absorption”, the “Weight gain (moisture absorption)” value is given as “less than 0.4%”.
